Assays:
[1] = LC retention time (Atlantis T3, 5-95% MeOH gradient, 0.1% formic acid); higher = more retained / less polar
Procedure, shortened: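 Retention times were recorded for reference standards on a polar reversed-phase C18 column. The standards were of purity ≥ 95%, and the Atlantis T3 column (3 × 150 mm, 3 μm) was run at 0.3 mL/min with a gradient from 5 to 95% methanol over 17.5 min, both water and methanol containing 0.1% formic acid. Detection used high-resolution tandem mass spectrometry on a QExactive Plus, with positive and negative electrospray in separate runs, and peaks were integrated in TraceFinder (5 ppm tolerance, at least three points per peak) before being checked by hand.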

[2] = absolute recovery over vacuum-assisted evaporative concentration; higher = better recovery; conditions: enrichment method: VEC
Procedure, shortened: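 Samples of influent (6 mL), effluent (15 mL) and surface or nanopure water (60 mL) were spiked with standards before or after concentration, or left unspiked, at 200 ng/L (nanopure/surface) or 1000 ng/L (wastewater), adjusted by class and compound. Concentration was by evaporation at 55 °C and 20 mbar to about 0.3 mL, followed by adjustment to 0.4 mL and centrifugation. Internal standards were then added for LC-HRMS/MS analysis. Absolute recovery was (response ratio pre − unspiked)/(post − unspiked) × 100, using averages of ≥ 2 replicates.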

[3] = absolute recovery over mixed-bed multilayer solid-phase extraction; higher = better recovery; conditions: enrichment method: SPE
Procedure, shortened: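 Absolute recovery was calculated by comparing background-corrected response ratios of samples spiked before extraction with those spiked after it, averaged over at least two replicates. Wastewater (100–250 mL, adjusted to pH 6.5 and glass-fibre filtered) or 1000 mL of unfiltered nanopure water was passed through a three-layer mixed-bed cartridge and eluted with basic and then acidic ethyl acetate/methanol. Standards were added before extraction, after extraction, or not at all, at 200 ng/L in water or 1000 ng/L in wastewater, with exceptions for some classes. Internal standards were added afterwards, and samples were analysed by liquid chromatography with high-resolution tandem mass spectrometry in both ionisation modes.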

SMILES	LC retention time [1] [min]	absolute recovery ([2]; wastewater effluent) [%]	absolute recovery ([2]; wastewater influent) [%]	absolute recovery ([3]; nanopure water) [%]	absolute recovery ([3]; surface water) [%]	absolute recovery ([3]; wastewater effluent) [%]	absolute recovery ([3]; wastewater influent) [%]
CCC1OC(=O)C(C)C(OC2CC(C)(OC)C(O)C(C)O2)C(C)C(OC2OC(C)CC([NH+](C)C)C2O)C(C)(OC)CC(C)C(=O)C(C)C(O)C1(C)O (stereo not drawn) [Clarithromycin]	16.9	100	105	89.7	98.5	91	85.1
CCC1(c2ccccc2)C(=O)NCNC1=O [Primidon]	14.5	103	98.5	94.9	92.4	88.6	92.9
CC1(C)CON(Cc2ccccc2Cl)C1=O [Clomazon]	19	80.3	78	–	92.1	82.7	87.1
Nc1ccn(C2OC(CO)C(O)C2O)c(=O)n1 (stereo not drawn) [Cytarabin]	15.6	89.3	–	103	112	104	64.6
CCN(CC)C(=O)C(C)Oc1cccc2ccccc12 (stereo not drawn) [Napropamid]	20.3	88.4	90.9	96.6	90.8	89.3	96.1
Cc1cccc(Nc2ccccc2C(=O)[O-])c1C [Mefenamic-acid]	21.9	102	97.7	101	95.7	93.3	–
Cc1nn(-c2cc(NS(C)(=O)=O)c(Cl)cc2Cl)c(=O)n1C(F)F [Sulfentrazon]	17.3	104	107	97.5	100	92.9	88.9
CC12C=CC(=O)C=C1CCC1C2C(O)CC2(C)C1CCC2(O)C(=O)CO (stereo not drawn) [Prednisolon]	18	104	63.1	88	82.7	82.1	91.4
CCOc1cc(Oc2ccc(C(F)(F)F)cc2Cl)ccc1[N+](=O)[O-] [Oxyfluorfen]	21	87.1	92.7	93.8	83.9	82.2	108
O=C([O-])COc1ccc(Cl)cc1Cl [2-4-D]	19.3	103	106	95.6	94	93.5	91.2
CNC(=O)Nc1ccc(Cl)c(Cl)c1 [Diuron-desmonomethyl (=DCPMU)]	18.6	105	106	99.4	112	102	86.1
CN1C(=O)CC(C)(c2ccccc2)C1=O (stereo not drawn) [Methsuximide]	16.6	99	85.5	99.2	84.5	89.9	89.6
CC(C)[NH2+]CC(O)COc1ccc(COCCOC(C)C)cc1 (stereo not drawn) [Bisoprolol]	13.8	110	98.1	103	91.8	91.4	89.8
CCc1cccc(C)c1N1C(=O)COCC1C (stereo not drawn) [Metolachlor-Morpholinon]	18.1	89.6	–	102	86.5	83.1	91.2
CC(C)[NH+](CCC(C(N)=O)(c1ccccc1)c1ccccn1)C(C)C (stereo not drawn) [Disopyramide]	12.2	98.1	106	90	94.4	92	104
Cc1cc(C2CC2)nc(Nc2ccccc2)n1 [Cyprodinil]	19.8	86.9	88.2	100	93.8	92.5	89.9
CC(C)N(C(=O)C(=O)[O-])c1ccccc1 [Propachlor-OXA]	17.8	105	100	96	73.3	93.5	102
C#CC(C)(C)NC(=O)c1cc(Cl)cc(Cl)c1 [Propyzamide]	20	82	88.4	97.1	88.9	87.8	101
CC(C)OC(=O)C(C)(C)Oc1ccc(C(=O)c2ccc(Cl)cc2)cc1 [Fenofibrat]	22.5	105	98.6	70	86.7	81	78.4
CC1(C)CC(O)CC(C)(C)[NH+]1CCO [4-Hydroxy-1-(2-hydroxyethyl)-2-2-6-6-tetramethylpiperidine]	4.55	92.4	130	71.9	61.7	54.6	52.7
CC(C)(C)Nc1nc(N)nc(O)n1 [Terbutylazin-desethyl-2-hydroxy]	9.56	113	85.2	89.9	102	96.7	94.1
COc1ccc2c(c1)c(CC(=O)OCC(=O)[O-])c(C)n2C(=O)c1ccc(Cl)cc1 [Acemetacin]	21.4	97.8	99.4	76.1	59.7	75.6	116
C[NH+]1C2CCC1C(C(=O)[O-])C(OC(=O)c1ccccc1)C2 (stereo not drawn) [Benzoylecgonin]	12.8	120	110	97.8	96	94.8	95.1
COc1nc(C)nc(N)n1 [2-Amino-4-methoxy-6-methyl-1-3-5-triazin]	9.03	101	106	102	112	102	102
Cc1ncc([N+](=O)[O-])n1CCO [Metronidazol]	10	102	102	95.6	91.3	87.1	95.9
CNC(=O)Oc1cccc2c1OC(C)(C)C2 [Carbofuran]	17	83.9	96.7	91.7	91.3	94.7	93.5

SMILES	LC retention time [1] [min]	absolute recovery ([2]; wastewater effluent) [%]	absolute recovery ([2]; wastewater influent) [%]	absolute recovery ([3]; nanopure water) [%]	absolute recovery ([3]; surface water) [%]	absolute recovery ([3]; wastewater effluent) [%]	absolute recovery ([3]; wastewater influent) [%]
CCC(C)C(=O)OC1CC(C)C=C2C=CC(C)C(CCC3CC(O)CC(=O)O3)C21 (stereo not drawn) [Lovastatin]	22.2	107	106	70.5	70.9	76.1	59.5
CON(C)C(=O)Nc1ccc(Cl)c(Cl)c1 [Linuron]	19.5	101	99.8	96.5	98.3	92.4	93.3
CCNc1nc(NC(C)C)nc(OC)n1 [Atraton]	14.4	101	102	92.8	94.2	90.4	96
CCNc1nc(O)nc(NCC)n1 [Simazin-2-hydroxy]	10.1	105	107	84.5	78.7	88.3	82.7
CCCCCCCCn1sc(Cl)c(Cl)c1=O [4-5-Dichloro-2-n-octyl-isothiazol-3(2H)-on (=DCOIT)]	22.7	19.3	–	93	62.5	66.5	60.8
CCCN(CCC)c1c([N+](=O)[O-])cc(S(N)(=O)=O)cc1[N+](=O)[O-] [Oryzalin]	20.2	105	91.7	97	102	94	109
Cc1cccc(Nc2ccncc2S(=O)(=O)[N-]C(=O)NC(C)C)c1 [Torasemid]	15.6	103	105	–	94.3	92.3	96
COCCc1ccc(OCC(O)C[NH2+]C(C)C)cc1 (stereo not drawn) [Metoprolol]	12.3	107	102	94.8	93.1	93.3	89.5
CCOC(=O)C1(c2ccccc2)CCC=CC1[NH+](C)C (stereo not drawn) [Tilidine]	12.6	70	63.5	73.9	78.8	79.5	83.5
CCC[NH+](CC)CC1COC2(CCC(C(C)(C)C)CC2)O1 (stereo not drawn) [Spiroxamin]	16.9	91.4	66.6	83	102	90.3	71.8
CNC(=O)Nc1ccc(C(C)C)cc1 [Isoproturon-monodemethyl (=1-(4-Isoprophenyl)-3-methylurea)]	18.3	105	101	96.3	93.3	94.1	98.9
CC(=O)NCC1CN(c2ccc(N3CCOCC3)c(F)c2)C(=O)O1 (stereo not drawn) [Linezolid]	14.9	103	100	92.3	90.5	92	99.5
CCCCc1oc2ccc(NS(C)(=O)=O)cc2c1C(=O)c1ccc(OCCC[NH+](CCCC)CCCC)cc1 [Dronedaron]	17.5	44.9	101	71.7	87.9	84.1	–
CC[N+]([O-])(CC)CC(=O)Nc1c(C)cccc1C [Lidocaine-N-Oxide]	12.2	102	105	90.4	94.7	90.6	98.9
COC(=O)c1cccc(C)c1S(=O)(=O)[N-]C(=O)Nc1nc(OCC(F)(F)F)nc(N(C)C)n1 [Triflusulfuron-methyl]	19.4	106	108	103	102	93.1	90.6
CCC1(c2cccc(O)c2)CCCC[NH+](C)C1 (stereo not drawn) [Meptazinol]	12.1	110	103	90.6	92.9	86.5	91.9
c1ccc2[nH]nnc2c1 [Benzotriazol]	13.4	104	102	99.4	–	–	95.1
COC=C(C(=O)OC)c1ccccc1COc1cccc(C(F)(F)F)n1 [Picoxystrobin]	20.3	94.2	121	94.1	94.9	99.7	81.3
c1ccc2[nH]c(-c3cscn3)nc2c1 [Thiabendazol]	11.7	102	105	79.2	77.5	81.8	92.3
COc1ccc2cc(C(C)C(=O)[O-])ccc2c1 (stereo not drawn) [Naproxen]	19.3	109	–	96.1	96.5	92.8	–
O=[N+]([O-])N=C1NCCN1Cc1ccc(Cl)nc1 [Imidacloprid]	13.4	103	98.6	97.8	96.7	95.4	91.9
Cc1cc(C)nc(NC(=O)[N-]S(=O)(=O)c2ccccc2C(=O)OC2COC2)n1 [Oxasulfuron]	16.5	111	103	107	93.3	93	83.6
COc1cccc(C2(O)CCCCC2C[N+](C)(C)[O-])c1 (stereo not drawn) [Tramadol-N-oxide]	12.7	104	102	99.4	91.3	90.2	95
CC(=O)SC1CC2=CC(=O)CCC2(C)C2CCC3(C)C(CCC34CCC(=O)O4)C12 (stereo not drawn) [Spironolacton]	19.3	93.7	91.9	80.9	79.1	87.9	92
CCCOCC(=Nc1ccc(Cl)cc1C(F)(F)F)n1ccnc1 [Triflumizole]	21.3	93.9	114	85.9	104	97.8	61.8
CCOP(=O)(OCC)OC(=CCl)c1ccc(Cl)cc1Cl [Chlorfenvinphos]	20.9	112	104	85.1	86.4	94.3	86.9
